Type in all cases: biochemical
Conditions in all cases: HeLa S3 lysate, 2 hrs at 30° C.

Test [1] relates to MYC. The test is described as follows: In vitro transcription-translation (IVTT) assay, MYC reporter. The source says:
(§1) All reporter constructs have been cloned into the pT7CFE1-CHis plasmid (ThermoFisher #88860) using Gibson assembly procedures (NEB #E2611L). The parental pT7CFE1-CHis plasmid contains an EMCV IRES at the 5′UTR for translation initiation, a multiple-cloning site (MCS) for gene insertion, an optional C-terminal His-epitope tag, and polyA sequence in the 3′UTR to regulate mRNA stability. All reporters are designed to be inserted at the MCS to include a red fluorescent protein (mCherry), P2A self-cleaving peptide which releases the preceding mCherry protein product, and a fusion open reading frame containing a 3×FLAG epitope, a peptide sequence of interest (TEST), and green fluorescent protein (sfGFP).
(§2) Construct Plasmid Preparation: All plasmids are isolated from MACH1 cells (ThermoFisher) grown overnight in ampicillin-containing luria broth, and purified using ZymoPure Express Plasmid Midiprep Kit (Zymo Research). Constructs are sequenced verified and diluted to a working concentration of 110 ng/μL.
(§3) HeLa S3 Lysate Preparation: HeLa S3 cell pellets are acquired from Ipracell/Ipratech (Belgium) and shipped as 4 mL frozen cell pellets on dry ice for storage at −80° C. until use. The procedure for lysate preparation is as follows. Prepare 1× Lysis Buffer, cold and stored on ice:
(§4) Each preparation takes 8 cell pellets (4 ml packed volume each, approximately 1.0×10^9 cells per pellet). Thaw cell pellets from −80° C. on ice for 90 mins. Lay pellets horizontally on top of the ice and rotate every 30 mins to ensure even thawing. Once thawed, add 4 mL of cold lysis buffer to each pellet, and using a serological pipet, gently pipet up and down to break up clumps. Incubate resuspended cells in ice for an additional 30 mins (plunged into ice). During 30 min incubation, rinse and RNase-zap (Ambion) glass dounces (use loose pestle “A”), gently dry and place on ice until needed. Prepare RNase-free Eppendorf tubes for spinning and for batch storage. Add batch labels to 1.5-1.7 mL RNase-free microcentrifuge tubes (labeling scheme below). Each batch will have an extra 1.5-1.7 mL RNase-free microcentrifuge tube for 40 μL of lysate, label the top of this tube (labeling scheme below). After 30 min incubation, transfer all 8 mL of cell pellet to dounce. Cell lysis is complete after douncing 100 times. Aliquot cell lysis into 1.5-1.7 mL temporary-microcentrifuge tubes. Place tubes in centrifuge with “fins” out, and spin at 1,200×g for 5 mins. After the first spin use a 1 mL pipet to resuspend each tube and repeat spin. This acts as an additional lysis step, is more vigorous and increases lysate yield. During second spin get liquid N2 and a fresh conical tube on ice. After spin is complete, transfer supernatant (lysate) from microcentrifuge tubes into the 50 mL conical tube and keep on ice. Repeat steps 10-14 for all other cell pellets until completed. Once all cell lysate has been transferred to the 50 mL conical tube pipet to mix so the solution is homogenous. Transfer 1 mL of lysate into batch-labeled microcentrifuge tubes and flash freeze in liquid nitrogen. Be sure to pipet up and down to mix throughout transfer step. Place all tubes in the […] for long-term storage.
(§5) In vitro transcription-translation assay setup: Each assay includes a master mix containing lysate and shared components, a 96-well plate containing compound titrations for testing, a 96-well DNA plate with reporter constructs to be tested, 96-well skirted PCR plates, and 96-well flat-bottom, black, fluorescent assay plates. […]

The test system of test [2] is CCND1. The test can be described thus: In vitro transcription-translation (IVTT) assay, CCND1 reporter.
Text: as §1, §2, §3, §4, §5

Test [3] deals with MCL-1. The test can be described thus: In vitro transcription-translation (IVTT) assay, MCL-1 reporter.
Text: as §1, §2, §3, §4, §5

Test [4] concerns CCNTB1. The test is described as follows: In vitro transcription-translation (IVTT) assay, CCNTB1 reporter. Here is the method: as §4
In vitro transcription-translation assay setup: Each assay includes a master mix containing lysate and shared components, a 96-well plate containing compound titrations for testing, a 96-well DNA plate with reporter constructs to be tested, 96-well skirted PCR plates, and 96-well flat-bottom, black, fluorescent assay plates. Reaction materials setup: (A) Master mix—15 mL conical tube (3 mL of HeLa S3 Lysate described above; 0.6 mL of ThermoFisher Accessory Proteins (#88882); 1.2 ml of ThermoFisher Reaction Mix (#88882); 0.54 mL of nuclease-free Water); (B) 96-Well Master Mix+Compound Plate (Half-log dilutions (30 μM−0.1 μM) of 4 compounds of interest are prepared in 100% DMSO); 96-Well DNA Plate (Five DNA constructs are plated into single columns within the plate. Row 1 of the column contains nuclease free H2O, all other wells contain 110 ng/μL plasmid DNA). Reactions are started by mixing 155 μL of master mix and 3.5 μL of compound serial dilutions, then 9.1 μL of master mix+compound mixture is aliquoted across 5 96-well plates. Reactions begin with final addition of 2 μL of DNA for a 11.1 μL reaction volume in each well. The entire plate is sealed, and incubated for 2 hrs at 30° C. After 2 hrs, quench the assay using 45 μL of PBS, and transfer 50 μL to a flat-bottom black microplate Quantify the sfGFP and mCherry signals from each well on each plate, taking 3 reads of each plate, and perform data analysis below.
In vitro transcription-translation assay data analysis: Each plate is read three times in channels for both sfGFP and mCherry signals. The average signal across these 3 reads is then calculated for further analysis. Control wells containing no DNA reporter are subtracted from reporter wells in the same column to remove auto-fluorescence of the lysate. Then, the ratio of sfGFP/mCherry is calculated per well, and these ratios are averaged across the triplicate experiments on the same plate. Finally, the ratio of each titration concentration is normalized to the no drug control to create the normalized stalling metric. […]

Setting [5] is: IVTT assay, MYC reporter, normalized sfGFP/mCherry ratio, half-log dilutions 30 μM-0.1 μM.

SMILES strings stand for the structures. pIC50: −log10 of the molar value. Like-named read-outs stand apart in the source and are kept apart here.

By pIC50 is commonly meant the negative decadic logarithm of the IC50, by convention in mol/L.

With `O=C(NCC[C@@H]1CCCN1)O[C@@H]1[C@@H](O)CN[C@@H]1Cc1ccc(-c2ccc(F)c(F)c2)cc1` [V191962, (2R,3S,4S)-2-({3′,4′-difluoro-[1,1′-biphenyl]-4-yl}methyl)-4-hydroxypyrrolidin-3-yl N-{2-[(2S)-pyrrolidin-2-yl]ethyl}carbamate], the pIC50 was less than 4.52 in test [1] (setting [5]); less than 4.52 in test [2] (IVTT); less than 4.52 in test [3] (IVTT, read-out: MCL1 IC50); less than 4.52 in test [4].

For `O=C(NCc1cccc(F)c1)O[C@@H]1[C@@H](O)CN[C@@H]1Cc1ccc(-c2cscn2)cc1` [V190511, (2R,3S,4S)-4-hydroxy-2-{[4-(1,3-thiazol-4-yl)phenyl]methyl}pyrrolidin-3-yl N-[(3-fluorophenyl)methyl]carbamate], the negative logarithm of the IC50 (pIC50) was more than 5.00 in test [1] (setting [5]); more than 5.00 in test [2] (IVTT); more than 5.00 in test [3] (IVTT, read-out: MCL1 IC50); more than 5.00 in test [4].

Take `COc1ccc(C[C@H]2NC[C@H](O)[C@H]2OC(=O)NCc2ccc3cnccc3c2)cc1` [V188348, (2R,3S,4S)-4-hydroxy-2-[(4-methoxyphenyl)methyl]pyrrolidin-3-yl N-(isoquinolin-6-ylmethyl)carbamate]: the pIC50 was more than 5.00 in test [1] (setting [5]); more than 5.00 in test [2] (IVTT); more than 5.00 in test [3] (IVTT, read-out: MCL1 IC50); more than 5.00 in test [4].

Turning to `COc1ccc(C[C@H]2NC[C@H](O)[C@H]2OC(=O)NCc2ccc(C3CCNC3)cc2)cc1` (stereo partly drawn) [V188354, (2R,3S,4S)-4-hydroxy-2-[(4-methoxyphenyl)methyl]pyrrolidin-3-yl N-{[4-(pyrrolidin-3-yl)phenyl]methyl}carbamate], the negative-log IC50 (pIC50) in test [1] (setting [5]) is more than 5.00; in test [2] (IVTT) it was more than 5.00; in test [3] (IVTT, read-out: MCL1 IC50), more than 5.00; in test [4] it was more than 5.00.

For the compound `COc1ccc(C[C@H]2NC[C@H](O)[C@H]2OC(=O)NCC[C@H]2CCCN2)cc1` [V188342, (2R,3S,4S)-4-hydroxy-2-[(4-methoxyphenyl)methyl]pyrrolidin-3-yl N-{2-[(2R)-pyrrolidin-2-yl]ethyl}carbamate], the pIC50 is more than 5.00 in test [1] (setting [5]); 4.52 to 4.70 in test [2] (IVTT); 4.70 to 5.00 in test [3] (IVTT, read-out: MCL1 IC50); more than 5.00 in test [4].

As to `COc1ccc(C[C@H]2NC[C@H](O)[C@H]2OC(=O)NCc2cccc(Cl)c2)cc1` [V191904, (2R,3S,4S)-4-hydroxy-2-[(4-methoxyphenyl)methyl]pyrrolidin-3-yl N-[(3-chlorophenyl)methyl]carbamate], the pIC50 in test [1] (setting [5]) is more than 5.00; in test [2] (IVTT) it was more than 5.00; in test [3] (IVTT, read-out: MCL1 IC50), more than 5.00; in test [4], more than 5.00.

`O=C(NCc1cccc(F)c1)O[C@@H]1[C@@H](O)CN[C@@H]1Cc1ccc(-n2ccnc2)cc1` [V190515, (2R,3S,4S)-4-hydroxy-2-{[4-(imidazol-1-yl)phenyl]methyl}pyrrolidin-3-yl N-[(3-fluorophenyl)methyl]carbamate]: the negative-log IC50 (pIC50) is more than 5.00 in test [1] (setting [5]); more than 5.00 in test [2] (IVTT); more than 5.00 in test [3] (IVTT, read-out: MCL1 IC50); more than 5.00 in test [4].

As to `COc1ccc(C[C@H]2NC[C@H](O)[C@H]2OC(=O)NCC(N)=O)cc1` [V188002, (2R,3S,4S)-4-hydroxy-2-[(4-methoxyphenyl)methyl]pyrrolidin-3-yl N-(carbamoylmethyl)carbamate], the negative logarithm of the IC50 (pIC50) in test [1] (sfGFP/mCherry ratio) is 4.52 to 4.70; in test [2] (sfGFP/mCherry ratio) it was more than 5.00; in test [3] (sfGFP/mCherry ratio), more than 5.00.

For the compound `COc1ccc(C[C@H]2NC[C@H](O)[C@H]2OC(=O)NCC2CC(F)(F)C2)cc1` [V187862, (2R,3S,4S)-4-hydroxy-2-[(4-methoxyphenyl)methyl]pyrrolidin-3-yl N-[(3,3-difluorocyclobutyl)methyl]carbamate], the pIC50 in test [1] (sfGFP/mCherry ratio), in test [2] (sfGFP/mCherry ratio) and in test [3] (sfGFP/mCherry ratio) was more than 5.00 throughout.

With `COc1ccc(C[C@H]2NC[C@H](O)[C@H]2OC(=O)NCCNc2ccccn2)cc1` [V188059, (2R,3S,4S)-4-hydroxy-2-[(4-methoxyphenyl)methyl]pyrrolidin-3-yl N-[2-(pyridin-2-ylamino)ethyl]carbamate], the pIC50 in test [1] (sfGFP/mCherry ratio), in test [2] (sfGFP/mCherry ratio) and in test [3] (sfGFP/mCherry ratio) was 4.70 to 5.00 throughout.

For `O=C(NCC[C@@H]1CCCN1)O[C@@H]1[C@@H](O)CN[C@@H]1Cc1ccc(-c2ccc(S(F)(F)(F)(F)F)cc2)cc1` [V191968, (2R,3S,4S)-4-hydroxy-2-((4′-(pentafluoro-l6-sulfanyl)-[1,1′-biphenyl]-4-yl)methyl)pyrrolidin-3-yl (2-((S)-pyrrolidin-2-yl)ethyl)carbamate], the pIC50 in test [1] (setting [5]) and in test [4] was less than 4.52 throughout.

Take `[H]/N=C(\N)CNC(=O)O[C@@H]1[C@@H](O)CN[C@@H]1Cc1ccc(OC)cc1` [Cmpd V187993]: the pIC50 in test [1] (sfGFP/mCherry ratio), in test [2] (sfGFP/mCherry ratio) and in test [3] (sfGFP/mCherry ratio) was 4.70 to 5.00 each time.

With `COc1ccc(C[C@H]2NC[C@H](O)[C@H]2OC(=O)NCc2ccc(B(O)O)cc2)cc1` [V188106], the pIC50 in test [1] (sfGFP/mCherry ratio), in test [2] (sfGFP/mCherry ratio) and in test [3] (sfGFP/mCherry ratio) was more than 5.00 each time.

`COc1ccc(C[C@H]2NC[C@H](O)[C@H]2OC(=O)NCCn2ccnc2C)cc1` [V188087, (2R,3S,4S)-4-hydroxy-2-[(4-methoxyphenyl)methyl]pyrrolidin-3-yl N-[2-(2-methylimidazol-1-yl)ethyl]carbamate]: the figures for the pIC50 in test [1] (sfGFP/mCherry ratio), in test [2] (sfGFP/mCherry ratio) and in test [3] (sfGFP/mCherry ratio) were 4.70 to 5.00, 4.52 to 4.70 and more than 5.00, respectively.

`COc1ccc(C[C@H]2NC[C@H](O)[C@H]2OC(=O)NCCNc2ncccn2)cc1` [V188058]: the negative logarithm of the IC50 (pIC50) in test [1] (sfGFP/mCherry ratio), in test [2] (sfGFP/mCherry ratio) and in test [3] (sfGFP/mCherry ratio) was less than 4.52 in each case.

As to `COc1ccc(C[C@H]2NC[C@H](O)[C@H]2OC(=O)NCc2cc(C(F)(F)F)[nH]n2)cc1` [Cmpd V187861], the negative-log IC50 (pIC50) in test [1] (sfGFP/mCherry ratio) is less than 4.52; in test [2] (sfGFP/mCherry ratio), 4.52 to 4.70; in test [3] (sfGFP/mCherry ratio), more than 5.00.

Take `COc1ccc(C[C@H]2NC[C@H](O)[C@H]2OC(=O)NCc2cnc(N)nc2)cc1` [V188037, (2R,3S,4S)-4-hydroxy-2-[(4-methoxyphenyl)methyl]pyrrolidin-3-yl N-[(2-aminopyrimidin-5-yl)methyl]carbamate]: the pIC50 in test [1] (sfGFP/mCherry ratio), in test [2] (sfGFP/mCherry ratio) and in test [3] (sfGFP/mCherry ratio) was more than 5.00 in each case.
